The test system of series [1] is GABA transport in rat cerebrocortical NPMV (GAT-2/3). The experiment in a line: [3H]GABA uptake in rat cerebrocortical native plasma membrane vesicles (NPMV) in the presence of 100 µM NNC-711. It counts as biochemical. Particulars: for effect on GABA transport in rat cortical NPMV: 10 min preincubation, 100 µM NNC-711 (Figure 1B); for modulation of the effect of Glu on GABA transport / cytosolic GABA level in rat cortical NPMV: 100 µM NNC-711 present. As for the experimental part: Cerebral cortices of 4–6 weeks old male Wistar rats (Toxicoop, Hungary) and frozen human brain tissue samples (Hungarian Brain Tissue Bank, Budapest) were used to prepare NPMV fractions, that contain numerous membrane vesicles of different sizes and shapes, a few intact synaptosomes and free mitochondria. […] Afterward, preincubated solution was incubated with [^3H]GABA (10 nM, Amersham) and GABA (90 nM, Sigma) for 1 min. In case of [^3H]β-alanine uptake, incubation solution contained 100 nM [^3H]β-alanine (Amersham) and 900 nM β-alanine (Sigma). After the incubation, samples were immediately filtered through glass fiber filters and washed twice with ice-cold HEPES buffer. The [^3H]GABA level inside the plasma membrane vesicles was determined by liquid scintillation method. Although this method is generally used to measure GABA uptake, we applied it to follow GABA release due to the simplicity and reliability of the assay. We also determined GABA release by preloading [^3H]GABA into NPMV vesicles and measuring the [^3H]GABA level in the intracellular and extracellular milieu. […] Non-specific uptake was determined in the presence of 1 mM guvacine. The radioactivity of samples was counted in HiSafe 3 (Perkin Elmer) scintillation mixture.

Series [2] concerns acute rat hippocampal slices. The experiment in a line: [3H]GABA efflux from acute rat hippocampal slices (microvolume superfusion). It counts as cell-based. Particulars: for effect on Glu-induced GABA release in hippocampal slices: DL-AP5 50 µM, CNQX 10 µM, (S)-MCPG 500 µM applied as Glu receptor antagonists. The protocol:
Radiolabeling of 400 µm thick acute slices was conducted in 200 µl of ACSF in a glass tube. […] To preferentially label the cytosolic over the vesicular pools, incubation of slices at 30°C lasted for 10 min [54]. Slices were washed with fresh ACSF containing GABA-T inhibitors, thereafter placed in a custom-built closed micro-volume (50 µl) chamber secured in a water bath thermostated at 30°C [55]. […] The superfusate was collected in 0.5 ml fractions. After washing for 10 min, 10 fractions were collected to define the basal release of radioactivity (‘pre-stimulus’). At this point, the hippocampal slice was exposed to 100 µM Glu for a period of 10 min (‘drug application’), followed by further 10 min of washing with ACSF (‘washout’). Radioactivity of each 0.5 ml fraction counted in 3 ml HiSafe 3 scintillation mixture was expressed as the percentage of the actual radioactivity content of the slice (fractional release). Fractional release data from individual slices were normalized to a first order exponential curve (obtained by fitting the pre-stimulus and the last 3 washout values). Normalized percent efflux data from fractions of ‘pre-stimulus’ (1–10 min) versus ‘drug application’ (11–20 min) periods were averaged and compared by statistical analysis.

The test system of series [3] is acute rat hippocampal slices. The description is as above. It counts as cell-based. The following applies: for alteration of [GABA]o during blockade of GAT-2/3: no exogenous Glu, n = 5.
In series [4] the test system is GAT-1. Set-up: method as in Borden,L.A. (1996) Neurochem Int. 4: 335–356. The following applies: ref Borden,L.A. (1996) Neurochem Int. 4: 335–356; cited from earlier work.
The subject of series [5] is BGT. Set-up: method as in Borden,L.A. (1996) Neurochem Int. 4: 335–356. Particulars: ref Borden,L.A. (1996) Neurochem Int. 4: 335–356; cited from earlier work.
Series [6] relates to GAT-2. More on the design: method as in Borden,L.A. (1996) Neurochem Int. 4: 335–356. Particulars: ref Borden,L.A. (1996) Neurochem Int. 4: 335–356; cited from earlier work.
The subject of series [7] is GAT-3. More on the design: method as in Borden,L.A. (1996) Neurochem Int. 4: 335–356. Particulars: ref Borden,L.A. (1996) Neurochem Int. 4: 335–356; cited from earlier work.
In series [8] the test system is rat hippocampus. The experiment in a line: In vivo microdialysis and HPLC amino acid detection in the hippocampus. As for the experimental part: Male Wistar rats (300–400 g) were anaesthetized with halothane (1% in air) and microdialysis probes were implanted into the ventral hippocampus (A: −5.0, L: 5.0, V: −8.0) as described previously. To minimize tissue damage, the final position of the probes was reached slowly, in not less than 20 min. Perfusion of artificial cerebrospinal fluid, containing 144 mM NaCl, 3 mM KCl, 1 mM MgCl2, 2 mM CaCl2 (pH 7.4), was performed at a rate of 1 µl/min. The dialysate samples during 20 min were stored at −20°C. To establish the background amino acid concentration, each experiment started with the collection of three control samples with <10% variation. NNC-711 was applied bilaterally for 60 min followed by the simultaneous application of t-PDC and NNC-711 for 60 min. Concentration of amino acids was measured by pre-column derivatization of primary amino acids with orthophthalaldehyde (OPA, Sigma). Derivatization was performed at pH 10.4 in the presence of mercaptoethanol. OPA-derivatized amino acids were detected with fluorescence detector excitation wavelength 340 nm and emission wavelength 440 nm. Because of the instability of OPA derivatives, the HPLC technique was automated on an HP 1100 series system. Amino acids were separated on HP Hypersyl ODS reversed-phase columns (200×2.1 mm) filled with 5 µm C-18 spherical packing material. Eluent A was 0.1 M phosphate buffer containing 0.5% (vol/vol) tetrahydrofuran (Merck), pH 5.6, while eluent B contained 70% acetonitrile (Merck) in eluent A, pH 5.6. The gradient profile was: 12% B at 0 min, 23% B at 9 min, 36% B at 18 min, 100% B at 20 min, 100% B at 25 min and 12% B at 30 min. The column equilibration time was 8 min. External standards of 10 µM amino acids were injected after every 20 samples. Chromatograms were evaluated with HP Chem-Station software. Concentration of GABA measured in dialysate samples collected during drug applications were related to averaged GABA concentration of control samples collected for an hour prior to drug application and were given as percent changes.

The subject of series [9] is hippocampus. Particulars: cited from earlier work.
Where [10] appears, read: rat cortical NPMV, in the presence of NNC-711, read-out: IC50, effect on GABA transport.
Where [11] appears, read: 100 µM SNAP-5114, nominally Mg2+-free ACSF.
Where [12] appears, read: GABA transport in the presence of 100 µM NNC-711, present study, read-out: IC50 Rat cerebrocortical NPMV.

Where two headings read alike, the source gives them in different places. Bounds are passed on as bounds.

A word on the IC50: it is the midpoint of a concentration-inhibition curve. Take `CC(C)C[C@H](N)C(=O)O` [L-Leu]: in series [1] (setting [10]), the IC50 was more than 1000 µM.
`C[C@@](N)(C(=O)O)c1ccc(C(=O)O)cc1` [(S)-MCPG, (S)-α-methyl-4-carboxyphenylglycine]: the “effect on Glu-induced GABA release in hippocampal slices” value in series [2] was “partially inhibited”.
On the same count and under the same terms, the result for “6-cyano-7-nitroquinoxaline-2,3-dione [CNQX]” reads “partially inhibited”.
As for `N[C@@H](CC(=O)O)C(=O)O` [L-Asp], the “effect on GABA transport in rat cortical NPMV” value (shortened to “effect on GABA transport”) in [1] is given as “able to affect GABA transport”.
On to `NCCc1c[nH]c2ccc(O)cc12` [serotonin], for which the 50% inhibitory concentration (IC50) in [1] (setting [10]) is more than 1000 µM.
With `COc1ccc(C(OCCN2CCC[C@H](C(=O)O)C2)(c2ccc(OC)cc2)c2ccc(OC)cc2)cc1` [SNAP-5114, 1-[2-[tris(4-methoxyphenyl)methoxy]ethyl]-(S)-3-piperidinecarboxylic acid], in [3] (setting [11]), the “reduction of [3H]GABA release compared to the pre-application period” value was determined as 10% and the “alteration of [GABA]o during blockade of GAT-2/3” value was 90±4 % of pre-application control. The “alteration of [GABA]o during blockade of GAT-2/3” value in series [3] (100 µM SNAP-5114, normal ACSF) was 100±6 % of pre-application control. For the same molecule, the “elevation of [GABA]o ([3H]GABA efflux)” value in series [2] (Glu-induced release in the presence of SNAP-5114, n = 4) was 109±4 % of pre-stimulus control.
`NC[C@H](CC(=O)O)c1ccc(Cl)cc1` [(R)-baclofen]: the “modulation of the effect of Glu on GABA transport / cytosolic GABA level in rat cortical NPMV” value in series [1] is “did not modulate the effect of Glu on the cytosolic GABA level”.
As to `N[C@H](CCC(=O)O)C(=O)O` [D-Glu], the “effect on GABA transport” value in series [1] is on record as “able to affect GABA transport”.
With `O=C(O)C1CCCN(CCC=C(c2ccccc2)c2ccccc2)C1` (centres unmarked) [SKF89976A], the IC50 was 0.64 µM in series [4]; 7210 µM in series [5]; 550 µM in series [6]; 372 ± 9 µM in series [1] (setting [12]); 4390 µM in [7].
With `NCCC(=O)O` [β-alanine], the IC50 is 2920 µM in series [4]; 1100 µM in series [5]; 66 µM in series [6]; 26 ± 4 µM in series [1] (setting [12]); 110 µM in [7].
For the molecule `C[N+](C)(C)CC(=O)O` [Betaine], the IC50 is more than 1000 µM in series [4]; 173 µM in [5]; more than 1000 µM in [6]; more than 1000 µM in [1] (setting [12]); more than 1000 µM in series [7].
With `CC(C)[C@H]1CN[C@H](C(=O)O)[C@H]1CC(=O)O` [DHK, dihydrokainic acid], the “modulation of the effect of Glu on GABA transport / cytosolic GABA level in rat cortical NPMV” value in series [1] was “significantly reduced”.
On to `O=C(O)C1CCCNC1` (centres unmarked) [Nipecotic acid], for which the IC50 in series [1] (setting [12]) amounted to 28 ± 0.5 µM.
As for `NCCc1ccc(O)c(O)c1` [dopamine], in [1] (setting [10]), the IC50 is more than 1000 µM.
On to `NC(CCCP(=O)(O)O)C(=O)O` (racemic) [DL-AP5, DL-2-amino-5-phosphonopentanoic acid], for which, in series [2], the “effect on Glu-induced GABA release in hippocampal slices” value is given as “partially inhibited”.
In the case of `O=C(O)CCC(=O)O` [succinate], the IC50 in series [1] (read-out: IC50, effect on GABA transport) is more than 1000 µM.
On to `N[C@H](CO)C(=O)O` [D-Ser], for which, in series [1] (setting [10]), the IC50 is more than 1000 µM.
Turning to `C[N+]1(C)CCc2cc3c(cc2[C@H]1[C@@H]1OC(=O)c2c1ccc1c2OCO1)OCO3.[I-]` [(1S,9R)-bicuculline methiodide], in series [1], the “modulation of the effect of Glu on GABA transport / cytosolic GABA level in rat cortical NPMV” value was “did not modulate the effect of Glu on the cytosolic GABA level”.
Consider `N[C@@H](CO)C(=O)O` [L-Ser], for which the IC50 in series [1] (setting [10]) is more than 1000 µM.
As for `NCCS(=O)O` [Hypotaurine], the half-maximal inhibitory concentration (IC50) in series [4] is 1010 µM; in series [5], 536 µM; in [6], 52 µM; in series [1] (setting [12]), 20 ± 0.4 µM; in [7], 73 µM.
In the case of `NCCS(=O)(=O)O` [Taurine], the IC50 was more than 1000 µM in [4]; more than 1000 µM in [5]; 1270 µM in series [6]; 400 ± 7 µM in series [1] (setting [12]); 2860 µM in series [7].
Take `N[C@@H](CS(=O)(=O)O)C(=O)O` [cysteic acid]: the “effect on GABA transport” value in series [1] is “able to affect GABA transport”.
Take `CC(C)C[C@@H](N)C(=O)O` [D-Leu]: the IC50 in series [1] (setting [10]) is more than 1000 µM.
As for `[Cd+2]` [Cd^2+], the “elevation of [GABA]o ([3H]GABA efflux)” value in series [2] (Glu-induced release in the presence of 50 µM Cd2+ salt in the superfusion, n = 3) is reported as 143±10 % of pre-stimulus control.
On to penicillin, for which the IC50 in series [1] (setting [10]) is more than 1000 µM.
In the case of `O=C(O)C1=CCCN(CCON=C(c2ccccc2)c2ccccc2)C1` [NNC-711, 1,2,5,6-tetrahydro-1-[2-[[(diphenylmethylene)amino]oxy]ethyl]-3-pyridinecarboxylic acid], the “reduction of the [3H]GABA uptake” value in series [1] (100 µM NNC-711, NPMV fractions, n = 51) worked out at 86±3%. Also, in series [8] (control for non-specific release, n = 10), the “[Arginine]o in the rat hippocampus in vivo” value is 100±25 % of control. Moreover, in [8] (microdialysis application, t-PDC applied together with NNC-711, n = 10), the “[GABA]o in the rat hippocampus in vivo” value was 160±18 % of control.
Turning to `N[C@H](C(=O)O)[C@H](OCc1ccccc1)C(=O)O` (racemic) [TBOA, DL-threo-β-benzyloxyaspartic acid], in series [9], the “neuronal damage after in vivo administration in the hippocampus” value is “induce neuronal damage in the CA1 and the dentate gyrus”. Moreover, the “modulation of the effect of Glu on GABA transport / cytosolic GABA level in rat cortical NPMV” value in [1] is listed as “further reduced”. Also, the “elevation of [GABA]o ([3H]GABA efflux)” value is 123±10 % of pre-stimulus control in [2] (Glu-induced release in the presence of 100 µM TBOA, n = 4) and 109±1 % of pre-stimulus control in series [2] (Glu-induced release in the presence of 1000 µM TBOA, n = 4).
As to `N[C@H](CC(=O)O)C(=O)O` [D-Asp], in [1], the “effect on GABA transport” value is listed as “able to affect GABA transport”.
